Data taken from patent publication US20150305333A1, “USE OF GLUCOSAMINE AMIDES AS PLANT GROWTH AND YIELD ENHANCERS” (PIONEER HI-BRED INTERNATIONAL, INC., priority 2012, published 2015).

Tested on: corn seeds
Assay: Petri dish seed germination assay, corn
Assay type: in vivo
Description: A series of Petri dish seed assays was conducted to evaluate the effects NPG on the seed germination rates of corn, soybean, and canola seeds subjected to cold stress, salt stress and non-stressed conditions (salt stress only for canola). Assays were performed with ten replications of ten seeds/plate (100 total seeds). NPG was applied to seeds at the specified concentrations prior to being placed in Petri plates. Seeds designated for Salt Stress Experiments 1 & 2 were placed in Petri dishes containing a 100 mM NaCl solution and incubated at 21° C.-22° C. in the dark. Cold stress Petri dishes were incubated at 15° C. in the dark. Untreated Controls were incubated at 21° C.-22° C. in the dark as were seeds utilized in the separately conducted non-stressed germination assays. Data was recorded as percent germination at designated times after plating. Statistical analyses were performed using one-way Anova and Kruskal-Wallis one-way analysis of variance on rank combined with Dunn's all pairwise multiple comparison procedure (α=0.05).

Which results are given for “Methyl 2-deoxy-2-N-(hexadece-9,10-cis-eneoyl)-β-D-glucopyranoside [NPG]”?
Corn Seed Germination (Salt Stress (100 mM NaCl) Experiment 1, 10^−6M, 30 HAP): 34a %; Corn Seed Germination (Salt Stress (100 mM NaCl) Experiment 1, 10^−6M, 40 HAP): 83a %; Corn Seed Germination (Salt Stress (100 mM NaCl) Experiment 1, 10^−6M, 48 HAP): 96a %; Corn Seed Germination (Salt Stress (100 mM NaCl) Experiment 1, 10^−7M, 30 HAP): 23a %; Corn Seed Germination (Salt Stress (100 mM NaCl) Experiment 1, 10^−7M, 40 HAP): 68a %; Corn Seed Germination (Salt Stress (100 mM NaCl) Experiment 1, 10^−7M, 48 HAP): 91a %
